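1) Cells in 96-well plates. 2) Compound, 48 h, 5 concentrations. 3) Linear interpolation between surrounding doses. 4) Unreached endpoint = highest concentration. TGI: total growth inhibition.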
Tests used:
Experiment in all cases: NCI tumour cell line growth inhibition, 48 h
SNB-78 CNS = tested on: SNB-78 CNS
M19-MEL melanoma = tested on: M19-MEL melanoma
DLD-1 colon = tested on: DLD-1 colon
SN12K1 renal = tested on: SN12K1 renal
P388 leukemia = tested on: P388 leukemia
NCI/ADR-RES ovarian = tested on: NCI/ADR-RES ovarian
MDA-N = tested on: MDA-N
HS 578T breast = tested on: HS 578T breast
LXFL 529 NSCLC = tested on: LXFL 529 NSCLC
RXF-631 renal = tested on: RXF-631 renal

## O=S(=O)(O)c1ccc(N=Nc2ccc(N=Nc3ccc(/C=C/c4ccc(N=[N+]([O-])c5ccc(/C=C/c6ccc(N=Nc7ccc(N=Nc8ccc(S(=O)(=O)O)cc8)c8ccccc78)cc6S(=O)(=O)O)c(S(=O)(=O)O)c5)cc4S(=O)(=O)O)c(S(=O)(=O)O)c3)c3ccccc23)cc1
SNB-78 CNS
  TGI: > 100 µM
M19-MEL melanoma
  TGI: > 100 µM
DLD-1 colon
  TGI: > 100 µM
SN12K1 renal
  TGI: > 100 µM
P388 leukemia
  TGI: > 100 µM
NCI/ADR-RES ovarian
  TGI: > 100 µM

## O=C(COC(=O)c1ccccc1)c1ccc(Br)cc1
MDA-N
  TGI: 16.4 µM
HS 578T breast
  TGI: 29.6 µM
NCI/ADR-RES ovarian
  TGI: 61.9 µM

## C/C(=C1/N=C(c2cc([N+](=O)[O-])ccc2Cl)N(C2=CC=C(Cl)CC2)C1=O)c1cc2ccccc2oc1=O
SNB-78 CNS
  TGI: > 100 µM
M19-MEL melanoma
  TGI: > 100 µM
DLD-1 colon
  TGI: > 100 µM
LXFL 529 NSCLC
  TGI: > 100 µM
RXF-631 renal
  TGI: > 100 µM

## CC1=CC[C@H](C)C(C)(C)C1/C=C/C(C)=C/CC[C@@]1(CO)[C@H](CCCO)/C(=C(/C)C=O)CC[C@]1(C)O (stereo partly specified)
SNB-78 CNS
  TGI: 27.5 µM
M19-MEL melanoma
  TGI: 53.3 µM
DLD-1 colon
  TGI: 15.1 µM
LXFL 529 NSCLC
  TGI: 20.2 µM

## Cc1cc(S(N)(=O)=O)c(S/C(=N\Nc2ccc([N+](=O)[O-])cc2)c2ccc(Cl)cc2)cc1Cl
HS 578T breast
  TGI: > 100 µM

## CCCCN(CCCC)c1ccc(N=Nc2ccc(S(=O)(=O)O)cc2)cc1
MDA-N
  TGI: > 100 µM
NCI/ADR-RES ovarian
  TGI: 70.9 µM

## C=CCN1C(=O)/C(=C/c2cccs2)N=C1SC1OC(COC(=O)c2ccccc2)C(OC(=O)c2ccccc2)C1OC(=O)c1ccccc1 (stereo unspecified)
NCI/ADR-RES ovarian
  TGI: > 100 µM

## COc1cccc(NC(=O)N/C(=C/c2ccc(N(CCC#N)CCC#N)cc2)NC(=O)c2cc([N+](=O)[O-])ccc2Cl)c1
SNB-78 CNS
  TGI: > 100 µM
M19-MEL melanoma
  TGI: > 100 µM
DLD-1 colon
  TGI: > 100 µM
LXFL 529 NSCLC
  TGI: > 100 µM
RXF-631 renal
  TGI: > 100 µM

## Nc1ccccc1Sc1ccc(Cl)cc1
SNB-78 CNS
  TGI: 46.6 µM
M19-MEL melanoma
  TGI: 60.7 µM
DLD-1 colon
  TGI: > 100 µM
LXFL 529 NSCLC
  TGI: > 100 µM
